Measurements reported in the supplement of paper PMC13380429.

How the values were obtained:
[1] = tested on: A549-ACE2 infected with SARS-CoV-2; assay: cell count relative to DMSO; higher = less toxic; conditions: 24 h
[2] = tested on: A549-ACE2 infected with SARS-CoV-2; assay: morphology score (similarity to uninfected cells); higher = more like uninfected cells; conditions: 24 h
[3] = tested on: A549-ACE2 infected with SARS-CoV-2; assay: SARS-CoV-2 infection rate relative to DMSO; higher = more infection; conditions: 24 h
[4] = tested on: HepG2; assay: cell viability relative to DMSO; higher = less toxic; conditions: 72 h
[5] = tested on: U2OS; assay: as above; conditions: 72 h
[6] = tested on: Caco-2; assay: as above; conditions: 72 h
[7] = tested on: HepG2; assay: drug sensitivity score (DSS) for viability; higher = more toxic; extreme values may be limits of the assay; conditions: 72 h
[8] = tested on: U2OS; assay: as above; conditions: 72 h
[9] = tested on: Caco-2; assay: as above; conditions: 72 h
[10] = tested on: A549-ACE2; assay: drug-induced phospholipidosis relative to tamoxifen; higher = more phospholipidosis
[11] = tested on: HepG2; assay: relative viability EC50 (midpoint between 100% and the lowest measured viability); higher = less toxic; conditions: 72 h
[12] = tested on: U2OS; assay: as above; conditions: 72 h
[13] = tested on: Caco-2; assay: as above; conditions: 72 h
[14] = tested on: Vero E6; assay: cell viability relative to DMSO; higher = less toxic; conditions: 72 h
[15] = tested on: Calu-3; assay: as above; conditions: 72 h
[16] = tested on: Vero E6; assay: drug sensitivity score (DSS) for viability; higher = more toxic; extreme values may be limits of the assay; conditions: 72 h
[17] = tested on: Calu-3; assay: as above; conditions: 72 h
[18] = tested on: Vero E6; assay: relative viability EC50 (midpoint between 100% and the lowest measured viability); higher = less toxic; conditions: 72 h
[19] = tested on: Calu-3; assay: as above; conditions: 72 h

Compound: O=C(O)CCCCCCCC(=O)O [azelaic-acid]
- cell count ([1]; 0.3 µM): 103%
- cell count ([1]; 3 µM): 95%
- cell count ([1]; 10 µM): 102%
- cell count ([1]; 30 µM): 102%
- morphology score ([2]; 0.3 µM): 0.2
- morphology score ([2]; 3 µM): -0.03
- morphology score ([2]; 10 µM): 0.06
- morphology score ([2]; 30 µM): 0.01
- SARS-CoV-2 infection rate ([3]; 0.3 µM): 94%
- SARS-CoV-2 infection rate ([3]; 3 µM): 100%
- SARS-CoV-2 infection rate ([3]; 10 µM): 98%
- SARS-CoV-2 infection rate ([3]; 30 µM): 103%
- cell viability ([4]; 1 nM): 102%
- cell viability ([4]; 10 nM): 92.3%
- cell viability ([4]; 100 nM): 115%
- cell viability ([4]; 1000 nM): 96.4%
- cell viability ([4]; 10000 nM): 99%
- cell viability ([5]; 1 nM): 101%
- cell viability ([5]; 10 nM): 103%
- cell viability ([5]; 100 nM): 99.4%
- cell viability ([5]; 1000 nM): 106%
- cell viability ([5]; 10000 nM): 97.7%
- cell viability ([6]; 1 nM): 105%
- cell viability ([6]; 10 nM): 97%
- cell viability ([6]; 100 nM): 103%
- cell viability ([6]; 1000 nM): 105%
- cell viability ([6]; 10000 nM): 95.6%
- drug sensitivity score [7]: 0
- drug sensitivity score [8]: 0
- drug sensitivity score [9]: 0
- drug-induced phospholipidosis ([10]; 0.3 µM, 24 h): -0.21%
- drug-induced phospholipidosis ([10]; 0.3 µM, 48 h): 0.97%
- drug-induced phospholipidosis ([10]; 0.3 µM, 72 h): 3.56%
- drug-induced phospholipidosis ([10]; 0.833333 µM, 24 h): -0.53%
- drug-induced phospholipidosis ([10]; 0.833333 µM, 48 h): -0.84%
- drug-induced phospholipidosis ([10]; 0.833333 µM, 72 h): 0.0211%
- drug-induced phospholipidosis ([10]; 3.33333 µM, 24 h): -0.9%
- drug-induced phospholipidosis ([10]; 3.33333 µM, 48 h): -1.1%
- drug-induced phospholipidosis ([10]; 3.33333 µM, 72 h): 0.507%
- drug-induced phospholipidosis ([10]; 6.66667 µM, 24 h): -0.71%
- drug-induced phospholipidosis ([10]; 6.66667 µM, 48 h): 0.62%
- drug-induced phospholipidosis ([10]; 6.66667 µM, 72 h): 0.701%
- drug-induced phospholipidosis ([10]; 10 µM, 24 h): -1.82%
- drug-induced phospholipidosis ([10]; 10 µM, 48 h): -0.42%
- drug-induced phospholipidosis ([10]; 10 µM, 72 h): 1.19%
- drug-induced phospholipidosis ([10]; 30 µM, 24 h): 0.53%
- drug-induced phospholipidosis ([10]; 30 µM, 48 h): 2.28%
- drug-induced phospholipidosis ([10]; 30 µM, 72 h): 4.29%
- relative viability EC50 [11]: > 10 µM
- relative viability EC50 [12]: > 10 µM
- relative viability EC50 [13]: > 10 µM

Compound: CC(C)C[C@H](NC(=O)[C@H](Cc1ccccc1)NC(=O)c1cnccn1)B(O)O [bortezomib]
- cell count ([1]; 0.3 µM): 57%
- cell count ([1]; 3 µM): 30%
- cell count ([1]; 10 µM): 27%
- cell count ([1]; 30 µM): 24%
- morphology score ([2]; 0.3 µM): 0.26
- morphology score ([2]; 3 µM): 0.33
- morphology score ([2]; 10 µM): 0.29
- morphology score ([2]; 30 µM): 0.23
- SARS-CoV-2 infection rate ([3]; 0.3 µM): 45%
- SARS-CoV-2 infection rate ([3]; 3 µM): 21%
- SARS-CoV-2 infection rate ([3]; 10 µM): 16%
- SARS-CoV-2 infection rate ([3]; 30 µM): 23%
- cell viability ([4]; 1 nM): 122%
- cell viability ([4]; 10 nM): 59.1%
- cell viability ([4]; 100 nM): 1.8%
- cell viability ([4]; 1000 nM): -0.2%
- cell viability ([4]; 10000 nM): -0.3%
- cell viability ([5]; 1 nM): 104%
- cell viability ([5]; 10 nM): 63.9%
- cell viability ([5]; 100 nM): -0.1%
- cell viability ([5]; 1000 nM): -0.4%
- cell viability ([5]; 10000 nM): -0.4%
- cell viability ([14]; 1 nM): 111%
- cell viability ([14]; 10 nM): 66.4%
- cell viability ([14]; 100 nM): 3%
- cell viability ([14]; 1000 nM): 0.2%
- cell viability ([14]; 10000 nM): 0.1%
- cell viability ([6]; 1 nM): 104%
- cell viability ([6]; 10 nM): 20.1%
- cell viability ([6]; 100 nM): 4.1%
- cell viability ([6]; 1000 nM): 5.9%
- cell viability ([6]; 10000 nM): 6.2%
- cell viability ([15]; 1 nM): 103%
- cell viability ([15]; 10 nM): 26.4%
- cell viability ([15]; 100 nM): 4.4%
- cell viability ([15]; 1000 nM): 5%
- cell viability ([15]; 10000 nM): 2.4%
- drug sensitivity score [7]: 35.9
- drug sensitivity score [8]: 35.5
- drug sensitivity score [16]: 35.2
- drug sensitivity score [9]: 38.6
- drug sensitivity score [17]: 38.3
- relative viability EC50 [11]: 0.0116 µM
- relative viability EC50 [12]: 0.0126 µM
- relative viability EC50 [18]: 0.0132 µM
- relative viability EC50 [13]: 0.0053 µM
- relative viability EC50 [19]: 0.0064 µM

Compound: CCc1cc(/C(C)=N/OCc2ccc(C3CCCCC3)c(C(F)(F)F)c2)ccc1CN1CC(C(=O)O)C1 [siponimod]
- cell viability ([4]; 1 nM): 104%
- cell viability ([4]; 10 nM): 89.8%
- cell viability ([4]; 100 nM): 91.3%
- cell viability ([4]; 1000 nM): 110%
- cell viability ([4]; 10000 nM): 97.4%
- cell viability ([5]; 1 nM): 101%
- cell viability ([5]; 10 nM): 99.5%
- cell viability ([5]; 100 nM): 96.6%
- cell viability ([5]; 1000 nM): 101%
- cell viability ([5]; 10000 nM): 98.7%
- cell viability ([14]; 1 nM): 102%
- cell viability ([14]; 10 nM): 101%
- cell viability ([14]; 100 nM): 98.6%
- cell viability ([14]; 1000 nM): 96.6%
- cell viability ([14]; 10000 nM): 96.4%
- cell viability ([6]; 1 nM): 93.6%
- cell viability ([6]; 10 nM): 107%
- cell viability ([6]; 100 nM): 91.3%
- cell viability ([6]; 1000 nM): 97.6%
- cell viability ([6]; 10000 nM): 81.3%
- cell viability ([15]; 1 nM): 116%
- cell viability ([15]; 10 nM): 99.7%
- cell viability ([15]; 100 nM): 98.8%
- cell viability ([15]; 1000 nM): 96.6%
- cell viability ([15]; 10000 nM): 97.6%
- drug sensitivity score [7]: 0
- drug sensitivity score [8]: 0
- drug sensitivity score [16]: 0
- drug sensitivity score [9]: 0.8
- drug sensitivity score [17]: 0
- relative viability EC50 [11]: > 10 µM
- relative viability EC50 [12]: > 10 µM
- relative viability EC50 [18]: > 10 µM
- relative viability EC50 [13]: > 10 µM
- relative viability EC50 [19]: > 10 µM

Compound: COc1nccnc1NS(=O)(=O)c1ccc(N)cc1 [sulfametopyrazine]
- cell viability ([4]; 1 nM): 97.6%
- cell viability ([4]; 10 nM): 99.7%
- cell viability ([4]; 100 nM): 103%
- cell viability ([4]; 1000 nM): 91.9%
- cell viability ([4]; 10000 nM): 99.4%
- cell viability ([5]; 1 nM): 102%
- cell viability ([5]; 10 nM): 95.4%
- cell viability ([5]; 100 nM): 104%
- cell viability ([5]; 1000 nM): 96.8%
- cell viability ([5]; 10000 nM): 98.9%
- cell viability ([14]; 1 nM): 102%
- cell viability ([14]; 10 nM): 107%
- cell viability ([14]; 100 nM): 95.2%
- cell viability ([14]; 1000 nM): 100%
- cell viability ([14]; 10000 nM): 97.5%
- cell viability ([6]; 1 nM): 99.7%
- cell viability ([6]; 10 nM): 87.3%
- cell viability ([6]; 100 nM): 101%
- cell viability ([6]; 1000 nM): 89.7%
- cell viability ([6]; 10000 nM): 102%
- cell viability ([15]; 1 nM): 98.5%
- cell viability ([15]; 10 nM): 97%
- cell viability ([15]; 100 nM): 98.1%
- cell viability ([15]; 1000 nM): 101%
- cell viability ([15]; 10000 nM): 102%
- drug sensitivity score [7]: 0
- drug sensitivity score [8]: 0
- drug sensitivity score [16]: 0
- drug sensitivity score [9]: 0
- drug sensitivity score [17]: 0
- relative viability EC50 [11]: > 10 µM
- relative viability EC50 [12]: > 10 µM
- relative viability EC50 [18]: > 10 µM
- relative viability EC50 [13]: > 10 µM
- relative viability EC50 [19]: > 10 µM

Compound: CNC(=O)c1cc(COc2nnc(Nc3ccc(Cl)cc3)c3ccoc23)ccn1 [telatinib]
- cell viability ([4]; 1 nM): 85.9%
- cell viability ([4]; 10 nM): 106%
- cell viability ([4]; 100 nM): 97.7%
- cell viability ([4]; 1000 nM): 101%
- cell viability ([4]; 10000 nM): 114%
- cell viability ([5]; 1 nM): 101%
- cell viability ([5]; 10 nM): 97.6%
- cell viability ([5]; 100 nM): 101%
- cell viability ([5]; 1000 nM): 98%
- cell viability ([5]; 10000 nM): 92.4%
- cell viability ([14]; 1 nM): 92.7%
- cell viability ([14]; 10 nM): 95.5%
- cell viability ([14]; 100 nM): 92.1%
- cell viability ([14]; 1000 nM): 93.3%
- cell viability ([14]; 10000 nM): 102%
- cell viability ([6]; 1 nM): 96.6%
- cell viability ([6]; 10 nM): 95.4%
- cell viability ([6]; 100 nM): 99.3%
- cell viability ([6]; 1000 nM): 97.2%
- cell viability ([6]; 10000 nM): 98.8%
- cell viability ([15]; 1 nM): 106%
- cell viability ([15]; 10 nM): 106%
- cell viability ([15]; 100 nM): 98.8%
- cell viability ([15]; 1000 nM): 96.6%
- cell viability ([15]; 10000 nM): 104%
- drug sensitivity score [7]: 0
- drug sensitivity score [8]: 0
- drug sensitivity score [16]: 0
- drug sensitivity score [9]: 0
- drug sensitivity score [17]: 0
- relative viability EC50 [11]: > 10 µM
- relative viability EC50 [12]: > 10 µM
- relative viability EC50 [18]: > 10 µM
- relative viability EC50 [13]: > 10 µM
- relative viability EC50 [19]: > 10 µM
